Source: US20140296484A1, “Cyclin Based Inhibitors of CDK2 and CDK4” (University of South Carolina, priority 2013, published 2014)
Read-outs that look alike come from different tables or passages of the source. Where a SMILES comes first, the peptide text is derived from it. [ ]: non-standard residue; d: D form. The star is where a group is joined. Ala(cPent) = N[C@@H](CC1CCCC1)C(=O)O; X1 = Cc1nc(C(=O)*)nn1-c1ccc(Cl)cc1; 3Thi = N[C@@H](Cc1ccsc1)C(=O)O

Columns and labels:
CDK2/cyclin A = CDK2/cyclin A (Homo sapiens, UniProt P20248); experiment: Fluorescence polarization (FP) competitive binding assay
Method: (§1) Once the compounds were characterized, their binding affinities were tested by FP assay.

[1] = as above; settings: Table 20; read-out: CDK2/Cyclin A IC050
Method: (§2) In order to assess the contribution of the PLA H-bond acceptor, analogous compounds were made in each series and activities for the 4-chloro and 3,5-dichloro analog were evaluated in each context.
(§3) Several additional analogs were synthesized in addition to the 3,5 dichloro and 4-chlorophenyl analogs. In addition to determining their inhibition of CDK2/cyclin A, the availability of the CDK4/cyclin D1 binding assay was exploited to develop SAR for both kinases.
as §1

CDK4/Cyclin D1 [2] = target: T1, CDK4/Cyclin D1 (Homo sapiens, UniProt P24385); experiment: as above
Method: as §2, §3, §1

CDK4/Cyclin D1 [3] = target: T1, CDK4/Cyclin D1; experiment: In vitro kinase assay, 32P filter capture with GST-Rb substrate; type: biochemical; settings: kinase assay
CDK2/Cyclin A2 = CDK2/Cyclin A2 (Homo sapiens, UniProt P20248); experiment: as above; type: biochemical
[4] = system: retinoblastoma (Rb)-positive tumor cells; settings: cited from earlier work
36 other protein kinases = settings: cited from earlier work
[5] = system: Colo-205 human colon carcinoma xenografts; settings: oral administration to mice bearing Colo-205 xenografts; cited from earlier work
CDK2/E = CDK2/E (Homo sapiens, UniProt P24864); experiment: In vitro kinase assay
[6] = competitive binding (FP) assay, read-out: CDK2/Cyclin A IC50
[7] = Table 15, read-out: CDK2/Cyclin D1 IC50

T1 sequence (P24385 whole entry): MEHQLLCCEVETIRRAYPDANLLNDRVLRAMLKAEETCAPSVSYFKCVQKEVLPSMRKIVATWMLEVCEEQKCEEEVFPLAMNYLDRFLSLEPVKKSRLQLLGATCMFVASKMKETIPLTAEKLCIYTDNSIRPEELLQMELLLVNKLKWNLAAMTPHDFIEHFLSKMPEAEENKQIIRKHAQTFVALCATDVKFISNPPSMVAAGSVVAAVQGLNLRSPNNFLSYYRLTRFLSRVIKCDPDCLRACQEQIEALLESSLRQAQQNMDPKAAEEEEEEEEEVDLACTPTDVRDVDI
T1 sequence (P11802 whole entry partner): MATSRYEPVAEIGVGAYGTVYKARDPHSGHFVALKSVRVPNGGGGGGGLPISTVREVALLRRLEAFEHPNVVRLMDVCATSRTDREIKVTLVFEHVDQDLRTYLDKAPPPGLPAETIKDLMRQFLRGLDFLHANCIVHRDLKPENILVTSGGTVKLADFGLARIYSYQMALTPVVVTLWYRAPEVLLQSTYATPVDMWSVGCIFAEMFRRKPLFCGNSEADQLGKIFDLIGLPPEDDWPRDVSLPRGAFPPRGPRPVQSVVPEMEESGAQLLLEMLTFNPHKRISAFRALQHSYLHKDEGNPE

`COc1ccccc1C(CC(C)C)NC(=O)C(CCCCNC(=N)N)NC(=O)c1nc(C)n(-c2cc(Cl)cc(Cl)c2)n1` (stereo not shown) [compound 5985] gave an IC50 (CDK2/cyclin A; [6]) greater than 180 µM and an IC50 [1] greater than 180 µM.
In the case of `CCOc1ccccc1C(CC(C)C)NC(=O)C(CCCCNC(=N)N)NC(=O)c1nc(C)n(-c2cc(Cl)cc(Cl)c2)n1` (stereo not shown) [compound 5984], the IC50 (CDK2/cyclin A; [6]) is reported as greater than 180 µM and the IC50 [1] is reported as greater than 180 µM.
Compound `CC[C@H](C)[C@H](NC(=O)[C@H](CC(C)C)NC(=O)[C@H](CCCNC(=N)N)NC(=O)c1nc(C)n(-c2ccc(Cl)cc2)n1)C(=O)N[C@@H](Cc1ccccc1)C(=O)O` [SCCP 5774] (X1-RLIF-OH) has an IC50 (CDK2/cyclin A; [6]) of 25 µM and an IC50 (CDK4/Cyclin D1 [2]; competitive binding (FP) assay, read-out: CDK4/Cyclin D1 IC50) of 11 µM.
`CCN(CCc1ccccc1)C(=O)CC(CC(C)C)NC(=O)[C@H](CCCNC(=N)N)NC(=O)c1nc(C)n(-c2cc(Cl)cc(Cl)c2)n1` (stereo partly shown) [compound 6003] gave an IC50 (CDK4/Cyclin D1 [2]; [7]) greater than 180 µM.
With `CCCOc1ccc(C)cc1C(CC(C)C)NC(=O)C(CCCCNC(=N)N)NC(=O)c1nc(C)n(-c2cc(Cl)cc(Cl)c2)n1` (stereo not shown) [compound 5980] the IC50 (CDK2/cyclin A; [6]) was greater than 180 µM and the IC50 [1] was greater than 180 µM.
With `CCN(CCc1ccccc1)C(=O)CC(CC(C)C)NC(=O)[C@H](CCCNC(=N)N)NC(=O)c1nc(C)n(-c2cc(Cl)cc(Cl)c2)n1` (stereo partly shown) [SCCP 6003] the IC50 (CDK2/cyclin A; [6]) was 85.6 µM.
For `CC[C@H](C)[C@H](NC(=O)[C@H](CC(C)C)NC(=O)[C@H](CCCNC(=N)N)NC(=O)[C@H](CCCNC(=N)N)NC(=O)[C@H](CCCCN)NC(=O)[C@H](C)NC(=O)[C@@H](N)Cc1c[nH]cn1)C(=O)N[C@@H](CC1CCCC1)C(N)=O` [HAKRRLIX5] (H-HAKRRLI[Ala(cPent)]-NH2), the IC50 (CDK4/Cyclin D1 [3]) was 90 µM and the IC50 (CDK2/Cyclin A2) was 20 µM.
Compound `CC[C@H](C)[C@H](NC(=O)[C@H](CC(C)C)NC(=O)[C@H](CCCNC(=N)N)NC(=O)c1nc(C)n(-c2cc(Cl)cc(Cl)c2)n1)C(=O)NCc1cccc(Oc2ccccc2)c1` [SCCP10] has an IC50 (CDK4/Cyclin D1 [3]) of 8 µM.
For `CC(=O)c1c(C)c2cnc(Nc3ccc(N4CCNCC4)cn3)nc2n(C2CCCC2)c1=O` [PD0332991], the antiproliferative activity [4] is given as “potent antiproliferative agent”, the “activity against 36 other protein kinases” value (36 other protein kinases) is given as “no activity” and the tumor response [5] is given as “marked tumor regression”.
In the case of H-HAKTRLIF-NH2, the IC50 (CDK4/Cyclin D1 [3]) is reported as 25 µM and the IC50 (CDK2/Cyclin A2) is reported as 50 µM.
`Cc1nc(C(=O)NC(CCCNC(=N)N)C(=O)NC(CC(C)C)C(=O)NCCCc2ccccc2)nn1-c1cc(Cl)cc(Cl)c1` (stereo not shown) [compound 6004] showed an IC50 (CDK2/cyclin A; [6]) of 57.7 µM and an IC50 (CDK4/Cyclin D1 [2]; [7]) greater than 180 µM.
`Cc1nc(C(=O)N[C@@H](CCCNC(=N)N)C(=O)NC(CC(=O)NCc2ccccc2)CC(C)C)nn1-c1cc(Cl)cc(Cl)c1` (stereo partly shown) [compound 6000] gave an IC50 (CDK2/cyclin A; [6]) greater than 180 µM and an IC50 (CDK4/Cyclin D1 [2]; [7]) greater than 180 µM.
Compound `CC[C@H](C)[C@H](NC(=O)[C@H](CC(C)C)NC(=O)[C@H](CCCNC(=N)N)NC(=O)[C@H](CCCNC(=N)N)NC(=O)[C@H](CCCCN)NC(=O)[C@H](C)NC(=O)[C@@H](N)Cc1c[nH]cn1)C(=O)N[C@@H](Cc1ccsc1)C(N)=O` [HAKRRLIX3] (H-HAKRRLI[3Thi]-NH2) has an IC50 (CDK2/Cyclin A2) of 25 µM.
Work on `CC(C)C[C@H](NC(=O)[C@H](CCCNC(=N)N)NC(=O)[C@H](CCCNC(=N)N)NC(=O)[C@H](CCCCN)NC(=O)[C@H](C)NC(=O)[C@@H]1CCCN1)C(=O)N[C@@H](Cc1ccccc1)C(=O)NCC(N)=O` yielded an IC50 (CDK4/Cyclin D1 [3]) of 6.7 µM.
Work on `COc1ccccc1CC(CC(C)C)NC(=O)C(CCCCNC(=N)N)NC(=O)c1nc(C)n(-c2cc(Cl)cc(Cl)c2)n1` (stereo not shown) [compound 5982] yielded an IC50 (CDK2/cyclin A; [6]) greater than 180 µM and an IC50 [1] greater than 180 µM.
With `N=C(N)NCCCC(NC(=O)c1ccccc1)C(=O)Nc1ccc2ccccc2c1` (stereo not shown) [N-(5-guanidino-1-(naphthalen-2-ylamino)-1-oxopentan-2-yl)benzamide] the “binding in the FP assay” value (CDK2/cyclin A; cyclin not specified (Cyclin A and D1 expected)) was “weakly binding”.
`CC[C@H](C)[C@H](NC(=O)[C@H](CC(C)C)NC(=O)[C@H](CCCNC(=N)N)NC(=O)[C@H](CCCNC(=N)N)NC(=O)[C@H](CCCCN)NC(=O)[C@H](C)NC(=O)[C@@H](N)Cc1c[nH]cn1)C(=O)N[C@@H](Cc1ccco1)C(N)=O` [HAKRRLIX1] gave an IC50 (CDK2/E) of 1.3 µM and an IC50 (CDK2/Cyclin A2) of 6.1 µM.
In the case of H-SAKRALFGM-NH2, the IC50 (CDK4/Cyclin D1 [3]) is reported as 68 µM.
5919 (RLIF) [compound 5919] gave an IC50 (CDK2/cyclin A; Table 10, Scaffold III N-caps on the peptide link, read-out: IC50 CDK2/A2) of 16.7 µM.
